# Results: US20230365488A1, “TRUXILLIC ACID MONOESTER-DERIVATIVES AS SELECTIVE FABP5 INHIBITORS AND PHARMACEUTICAL COMPOSITIONS AND USES THEREOF” (The Research Foundation for The State University of New York, priority 2020, published 2023)
# What was measured:
# [1] = target: FABP7 (Homo sapiens (Human), UniProt O15540); test: FABP7 fluorescent probe displacement binding assay; details: average ± S.E. of at least three independent experiments
# [2] = tested on: 22Rv1 cells; test: MTT cytotoxicity and taxane combination (CI) analysis, 22Rv1 (Example 6); format: cell-based, human; details: for CI value / Fa value / Relationship: 1y 7.5 μM or 1w 1.0 μM
# [3] = tested on: PC3 cells; test: MTT cytotoxicity and taxane combination (CI) analysis, PC3 (Example 6); format: cell-based, human; details: for CI value / Fa value / Relationship: PC3, 1y 7.5 μM or 1w 1.0 μM
# [4] = MTT cytotoxicity, WI-38 (Example 6); format: cell-based; details: human, WI-38 cells (normal lung cell line), 72-hour incubation
# [5] = tested on: DU-145 cells; test: MTT cytotoxicity and taxane combination (CI) analysis, DU-145 (Example 6); format: cell-based, human; details: for CI value / Fa value / Relationship: 1y 7.5 μM or 1w 1.0 μM
# [6] = MTT cytotoxicity, RWPE-1 (Example 6); format: cell-based; details: human, RWPE-1 cells (normal prostate cell line), 72-hour incubation
# [7] = target: FABP3 (Homo sapiens (Human), UniProt P05413); test: FABP3 fluorescent probe displacement binding assay; details: average ± S.E. of at least three independent experiments
# [8] = tested on: PC3 cells implanted subcutaneously; test: Subcutaneous PC3 tumor growth in nude mice; format: in vivo, male BALB/c nude mice
# [9] = 22Rv1, combination with cabazitaxel 0.03 nM
# [10] = 22Rv1, combination with cabazitaxel 0.3 nM
# [11] = 22Rv1, combination with cabazitaxel 3.0 nM
# [12] = 22Rv1, combination with docetaxel 0.03 nM
# [13] = 22Rv1, combination with docetaxel 0.3 nM
# [14] = 22Rv1, combination with docetaxel 3.0 nM
# [15] = combination with cabazitaxel 0.03 nM
# [16] = combination with cabazitaxel 0.3 nM
# [17] = combination with cabazitaxel 3.0 nM
# [18] = combination with docetaxel 0.03 nM
# [19] = combination with docetaxel 0.3 nM
# [20] = combination with docetaxel 3.0 nM
# [21] = DU-145, combination with cabazitaxel 0.03 nM
# [22] = DU-145, combination with cabazitaxel 0.3 nM
# [23] = DU-145, combination with cabazitaxel 3.0 nM
# [24] = DU-145, combination with docetaxel 0.03 nM
# [25] = DU-145, combination with docetaxel 0.3 nM
# [26] = DU-145, combination with docetaxel 3.0 nM
# Sequence of FABP3 (P05413 whole entry): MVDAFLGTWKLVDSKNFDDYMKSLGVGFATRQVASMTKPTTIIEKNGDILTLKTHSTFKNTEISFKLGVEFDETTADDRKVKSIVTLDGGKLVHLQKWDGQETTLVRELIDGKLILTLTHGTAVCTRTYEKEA
# Sequence of FABP7 (O15540 whole entry): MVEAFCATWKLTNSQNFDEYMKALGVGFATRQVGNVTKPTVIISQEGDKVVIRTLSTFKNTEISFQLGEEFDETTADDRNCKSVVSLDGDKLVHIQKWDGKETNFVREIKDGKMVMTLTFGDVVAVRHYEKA
smiles,measurement,setting,value
COc1ccccc1[C@H]1[C@H](C(=O)O)[C@H](c2ccccc2OC)[C@H]1C(=O)OCC1c2ccccc2-c2ccccc21 (racemic) [Compound 1w],Ki,[1],4.26 ± 0.41 µM
same,CI value,[2]; [9],0.731
same,Fa value,[2]; [9],0.577
same,Relationship,[2]; [9],synergistic
same,CI value,[2]; [10],0.549
same,Fa value,[2]; [10],0.728
same,Relationship,[2]; [10],synergistic
same,CI value,[2]; [11],0.659
same,Fa value,[2]; [11],0.823
same,Relationship,[2]; [11],synergistic
same,CI value,[2]; [12],1.673
same,Fa value,[2]; [12],0.457
same,CI value,[2]; [13],0.373
same,Fa value,[2]; [13],0.744
same,Relationship,[2]; [13],synergistic
same,CI value,[2]; [14],0.267
same,Fa value,[2]; [14],0.905
same,Relationship,[2]; [14],synergistic
same,cytotoxicity of combination with docetaxel or cabazitaxel versus each drug administered independently,[2]; 22Rv1 cells,greater cytotoxicity
same,IC50,"[2]; Homo sapiens, 22Rv1, MTT, 72-hour incubation, single agent",3.1 µM
same,IC50,"[3]; Homo sapiens, PC-3, MTT, 72-hour incubation, single agent",6.3 µM
same,CI value,[3]; [15],0.899
same,Fa value,[3]; [15],0.379
same,Relationship,[3]; [15],synergistic
same,CI value,[3]; [16],0.942
same,Fa value,[3]; [16],0.420
same,Relationship,[3]; [16],synergistic
same,CI value,[3]; [17],0.373
same,Fa value,[3]; [17],0.853
same,Relationship,[3]; [17],synergistic
same,CI value,[3]; [18],0.710
same,Fa value,[3]; [18],0.402
same,Relationship,[3]; [18],synergistic
same,CI value,[3]; [19],0.889
same,Fa value,[3]; [19],0.432
same,Relationship,[3]; [19],synergistic
same,CI value,[3]; [20],0.394
same,Fa value,[3]; [20],0.700
same,Relationship,[3]; [20],synergistic
same,cytotoxicity of combination with docetaxel or cabazitaxel versus each drug administered independently,[3]; PC3 cells,greater cytotoxicity
same,IC50 at 72 h,[4],29.6 µM
same,CI value,[5]; [21],0.449
same,Fa value,[5]; [21],0.464
same,Relationship,[5]; [21],synergistic
same,CI value,[5]; [22],0.300
same,Fa value,[5]; [22],0.716
same,Relationship,[5]; [22],synergistic
same,CI value,[5]; [23],0.194
same,Fa value,[5]; [23],0.882
same,Relationship,[5]; [23],synergistic
same,CI value,[5]; [24],4.473
same,Fa value,[5]; [24],0.516
same,CI value,[5]; [25],2.697
same,Fa value,[5]; [25],0.676
same,CI value,[5]; [26],0.445
same,Fa value,[5]; [26],0.935
same,Relationship,[5]; [26],synergistic
same,cytotoxicity of combination with docetaxel or cabazitaxel versus each drug administered independently,[5]; DU-145 cells,greater cytotoxicity
same,IC50,"[5]; Homo sapiens, DU-145, MTT, 72-hour incubation, single agent",3.3 µM
same,IC50 at 72 h,[6],20.6 µM
same,Ki,[7],25.3 ± 4.57 µM
same,"tumor growth, coadministration with docetaxel","[8]; 20 mg/kg ip daily in combination with docetaxel 5 mg/kg weekly, comparable in magnitude to the 10 mg/kg docetaxel dose",greater inhibition of tumor growth than treatment with each compound alone
same,tumor growth,"[8]; 20 mg/kg, ip, once daily, from day 15, versus vehicle",significantly reduced tumor growth
